Results published in PMC9145702, “Design, Synthesis and Evaluation of Fused Bicyclo[2.2.2]octene as a Potential Core Scaffold for the Non-Covalent Inhibitors of SARS-CoV-2 3CL^pro Main Protease” (Pharmaceuticals, 2022).
Read-outs that look alike come from different tables or passages of the source.

Key:
[1] = tested on: 3CL^pro; design: method as in PMID 33817567; details: compared with 11a; read-out: inhibition activity; cited from earlier work
[2] = biological target: SARS-CoV-2 3CL^pro main protease (Severe acute respiratory syndrome coronavirus 2, UniProt P0DTD1); assay: FRET-based assay of SARS-CoV-2 3CL^pro main protease inhibition activity; type: biochemical; details: for first screening result (hit candidate): first FRET screening at 64 μM of each compound, before accounting for compound effect on fluorescence; for screening result after accounting for effect on measured fluorescence: 64 μM, difference between 3CL(+) and 3CL(-) fluorescence

C/C(=N\NC(=O)c1cccnc1)C1=CC2(NC(=O)c3ccccc3)C3C(=O)N(NC(=O)c4cccnc4)C(=O)C3C1(C)C1C(=O)N(NC(=O)c3cccnc3)C(=O)C12 (stereo not drawn) [11o, N-[2,3,3a,4a,5,6,7,7a,8,8a-Decahydro-8-methyl-1,3,5,7-tetraoxo-2,6-bis(3-pyridyl-carboamino)-9-(1-(N-[3-pyridylcarbo]hydrazonyl)eth-1-yl)-4,8-ethenobenzo[1,2-c:4,5-c′]dipyrrol-4(1H)-yl]benzamide]
melting point: 284 to 286 °C

O=C(NN1C(=O)C2C(C1=O)C1(c3ccccc3)C=CC2(NC(=O)c2ccccc2)C2C(=O)N(NC(=O)c3ccncc3)C(=O)C21)c1ccncc1 (stereo not drawn) [11c, N-[8-Phenyl-2,3,3a,4a,5,6,7,7a,8,8a-decahydro-1,3,5,7-tetraoxo-2,6-bis(4-pyridylcarboamino)-4,8-ethenobenzo[1,2-c:4,5-c′]dipyrrol-4(1H)-yl]benzamide]
melting point: 289 to 293 °C

CC1=CC2(c3ccccc3)C3C(=O)N(NC(=O)c4ccccn4)C(=O)C3C1(NC(=O)c1ccccc1)C1C(=O)N(NC(=O)c3ccccn3)C(=O)C12 (stereo not drawn) [11d, N-[8-Phenyl-2,3,3a,4a,5,6,7,7a,8,8a-decahydro-10-methyl-1,3,5,7-tetraoxo-2,6-bis(2-pyridylcarboamino)-4,8-ethenobenzo[1,2-c:4,5-c′]dipyrrol-4(1H)-yl]benzamide]
melting point: 271 to 274 °C

Cc1c(O)cccc1C(=O)N[C@@H](CSc1ccccc1)[C@H](O)CN1C[C@H]2CCCC[C@H]2C[C@H]1C(=O)NC(C)(C)C [nelfinavir]
IC50 [1]: ~40 µM

O=C(NC12C=CC(c3ccco3)(C3C(=O)N(NC(=O)c4ccccn4)C(=O)C31)C1C(=O)N(NC(=O)c3ccccn3)C(=O)C12)c1ccccc1 (stereo not drawn) [11i, N-[8-(2-Furyl)-2,3,3a,4a,5,6,7,7a,8,8a-decahydro-1,3,5,7-tetraoxo-2,6-bis(2-pyridylcarboamino)-4,8-ethenobenzo[1,2-c:4,5-c′]dipyrrol-4(1H)-yl]benzamide]
melting point: 332 to 334 °C | first screening result (hit candidate) [2]: candidate hit compounds

O=C(NN1C(=O)C2C(C1=O)C1(c3ccco3)C=CC2(NC(=O)c2ccccc2)C2C(=O)N(NC(=O)c3ccncc3)C(=O)C21)c1ccncc1 (stereo not drawn) [11k, N-[8-(2-Furyl)-2,3,3a,4a,5,6,7,7a,8,8a-decahydro-1,3,5,7-tetraoxo-2,6-bis(4-pyridylcarboamino)-4,8-ethenobenzo[1,2-c:4,5-c′]dipyrrol-4(1H)-yl]benzamide]
melting point: 309 to 311 °C

O=C(NN1C(=O)C2C(C1=O)C1(c3ccco3)C=CC2(NC(=O)c2ccccc2)C2C(=O)N(NC(=O)c3cccnc3)C(=O)C21)c1cccnc1 (stereo not drawn) [11j, N-[8-(2-Furyl)-2,3,3a,4a,5,6,7,7a,8,8a-decahydro-1,3,5,7-tetraoxo-2,6-bis(3-pyridylcarboamino)-4,8-ethenobenzo[1,2-c:4,5-c′]dipyrrol-4(1H)-yl]benzamide]
melting point: 272 to 276 °C

COc1ccc(C2=CC3(NC(=O)c4ccccc4)C4C(=O)N(NC(=O)c5ccccn5)C(=O)C4C2(C)C2C(=O)N(NC(=O)c4ccccn4)C(=O)C23)cc1 (stereo not drawn) [11l, N-[2,3,3a,4a,5,6,7,7a,8,8a-Decahydro-8-methyl-9-(4-methoxyphenyl)-1,3,5,7-tetraoxo-2,6-bis(2-pyridylcarboamino)-4,8-ethenobenzo[1,2-c:4,5-c′]dipyrrol-4(1H)-yl]benzamide]
melting point: 298 to 303 °C (dec.)

O=C(NN1C(=O)C2C(C1=O)C1(c3cccs3)C=CC2(NC(=O)c2ccccc2)C2C(=O)N(NC(=O)c3ccncc3)C(=O)C21)c1ccncc1 (stereo not drawn) [11h, N-[2,3,3a,4a,5,6,7,7a,8,8a-Decahydro-1,3,5,7-tetraoxo-2,6-bis(4-pyridylcarboamino)-8-(2-thienyl)-4,8-ethenobenzo[1,2-c:4,5-c′]dipyrrol-4(1H)-yl]benzamide]
melting point: 310 to 312 °C

COc1ccc(C2=CC3(NC(=O)c4ccccc4)C4C(=O)N(NC(=O)c5ccncc5)C(=O)C4C2(C)C2C(=O)N(NC(=O)c4ccncc4)C(=O)C23)cc1 (stereo not drawn) [11n, N-[2,3,3a,4a,5,6,7,7a,8,8a-Decahydro-8-methyl-9-(4-methoxyphenyl)-1,3,5,7-tetraoxo-2,6-bis(4-pyridylcarboamino)-4,8-ethenobenzo[1,2-c:4,5-c′]dipyrrol-4(1H)-yl]benzamide]
melting point: 387 to 390 °C (dec.)

O=C(NC12C=CC(c3ccccc3)(C3C(=O)N(NC(=O)c4ccccn4)C(=O)C31)C1C(=O)N(NC(=O)c3ccccn3)C(=O)C12)c1ccccc1 (stereo not drawn) [11a, N-[8-Phenyl-2,3,3a,4a,5,6,7,7a,8,8a-decahydro-1,3,5,7-tetraoxo-2,6-bis(2-pyridylcarboamino)-4,8-ethenobenzo[1,2-c:4,5-c′]dipyrrol-4(1H)-yl]benzamide]
melting point: 263 to 265 °C | screening result after accounting for effect on measured fluorescence [2]: remained as hit candidates | IC50 ([2]; FRET assay, isolated SARS-CoV-2 3CL^pro, compound concentrations 200, 100, 50 and 25 μM): 102 µM | first screening result (hit candidate) [2]: candidate hit compounds

COc1ccc(C2=CC3(NC(=O)c4ccccc4)C4C(=O)N(NC(=O)c5cccnc5)C(=O)C4C2(C)C2C(=O)N(NC(=O)c4cccnc4)C(=O)C23)cc1 (stereo not drawn) [11m, N-[2,3,3a,4a,5,6,7,7a,8,8a-Decahydro-8-methyl-9-(4-methoxyphenyl)-1,3,5,7-tetraoxo-2,6-bis(3-pyridylcarboamino)-4,8-ethenobenzo[1,2-c:4,5-c′]dipyrrol-4(1H)-yl]benzamide]
melting point: 365 to 369 °C (dec.)

O=C(NC12C=CC(c3cccs3)(C3C(=O)N(NC(=O)c4ccccn4)C(=O)C31)C1C(=O)N(NC(=O)c3ccccn3)C(=O)C12)c1ccccc1 (stereo not drawn) [11f, N-[2,3,3a,4a,5,6,7,7a,8,8a-Decahydro-1,3,5,7-tetraoxo-2,6-bis(2-pyridylcarboamino)-8-(2-thienyl)-4,8-ethenobenzo[1,2-c:4,5-c′]dipyrrol-4(1H)-yl]benzamide]
melting point: 288 to 291 °C (dec.) | first screening result (hit candidate) [2]: candidate hit compounds

CC1=CC2(c3ccccc3)C3C(=O)N(NC(=O)c4cccnc4)C(=O)C3C1(NC(=O)c1ccccc1)C1C(=O)N(NC(=O)c3cccnc3)C(=O)C12 (stereo not drawn) [11e, N-[8-Phenyl-2,3,3a,4a,5,6,7,7a,8,8a-decahydro-10-methyl-1,3,5,7-tetraoxo-2,6-bis(3-pyridylcarboamino)-4,8-ethenobenzo[1,2-c:4,5-c′]dipyrrol-4(1H)-yl]benzamide]
melting point: 345 to 347 °C (dec.) | IC50 [2]: ~200 µM | screening result after accounting for effect on measured fluorescence [2]: remained as hit candidates | first screening result (hit candidate) [2]: candidate hit compounds

O=C(NN1C(=O)C2C(C1=O)C1(c3cccs3)C=CC2(NC(=O)c2ccccc2)C2C(=O)N(NC(=O)c3cccnc3)C(=O)C21)c1cccnc1 (stereo not drawn) [11g, N-[2,3,3a,4a,5,6,7,7a,8,8a-Decahydro-1,3,5,7-tetraoxo-2,6-bis(3-pyridylcarboamino)-8-(2-thienyl)-4,8-ethenobenzo[1,2-c:4,5-c′]dipyrrol-4(1H)-yl]benzamide]
melting point: 259 to 262 °C (dec.)

O=C(NN1C(=O)C2C(C1=O)C1(c3ccccc3)C=CC2(NC(=O)c2ccccc2)C2C(=O)N(NC(=O)c3cccnc3)C(=O)C21)c1cccnc1 (stereo not drawn) [11b, N-[8-Phenyl-2,3,3a,4a,5,6,7,7a,8,8a-decahydro-1,3,5,7-tetraoxo-2,6-bis(3-pyridylcarboamino)-4,8-ethenobenzo[1,2-c:4,5-c′]dipyrrol-4(1H)-yl]benzamide]
melting point: 278 to 282 °C
